Like-named read-outs stand apart in the source and are kept apart here. Square brackets hold non-standard residues; d marks the D form. Peptide text beside a SMILES is read from it. * marks the point of attachment. Sta = CC(C)C[C@H](N)[C@@H](O)CC(=O)O; Isovaleryl = CC(C)CC(=O)*; Cbz = O=C(OCc1ccccc1)*; CH2F = FC*
Test system: Raf-1^gof intestinal tumors
Conditions: for Log2 (fold) of luciferase activity relative to DMSO controls / Fold (luciferase activity relative to DMSO controls): ICCB compounds fed in vials to flies with one-day old Raf-1^gof tumors; for Fold: luciferase relative to DMSO, fed three consecutive days in vials
[1] = screen of 480 ICCB compounds in vials, compounds fed to flies with one-day old Raf-1^gof tumors, assessed three days later, esg-Gal4 luciferase
[2] = screen of 480 ICCB compounds in vials, compounds fed to flies with one-day old Raf-1^gof tumors, assessed three days later, esg-Gal4 luciferase, averaged from multiple wells
[3] = assessed three days later, averaged from multiple wells
[4] = Table 3 summary of hits, Screen ICCB
Wherever Fold (luciferase activity relative to DMSO controls) is given: test concentration or dose not given here.
Wherever Fold (luciferase activity, fold difference relative to DMSO controls) is given: test concentration or dose not given here.
Wherever Log2 (fold) (luciferase activity, log2 of the fold difference relative to DMSO controls) is given: test concentration or dose not given here.
Wherever Log2 (fold) of luciferase activity relative to DMSO controls is given: test concentration or dose not given here.

Compound | Log2 (fold) (luciferase activity, log2 of the fold difference relative to DMSO controls) [1] | Fold (luciferase activity, fold difference relative to DMSO controls) [2] | Log2 (fold) of luciferase activity relative to DMSO controls (assessed three days later) | Fold (luciferase activity relative to DMSO controls) [3] [fold] | also measured
CC(C)CC(=O)N[C@H](C(=O)N[C@H](C(=O)N[C@@H](CC(C)C)[C@@H](O)CC(=O)N[C@@H](C)C(=O)N[C@@H](CC(C)C)[C@@H](O)CC(=O)O)C(C)C)C(C)C [pepstatin] (Isovaleryl-VV[Sta]A[Sta]-OH) | −0.491 | 0.711 | – | – | –
CCCCCCCCCCCCCC(=O)O[C@@H]1[C@@H](C)[C@@]2(O)[C@@H](C=C(CO)C[C@]3(O)C(=O)C(C)=C[C@@H]23)[C@@H]2C(C)(C)[C@]12OC(C)=O [phorbol 12 myristate 13 acetate] | −0.323 | 0.799 | – | – | –
CN1C(C(=O)Nc2ccccn2)=C(O)c2ccccc2S1(=O)=O [piroxicam] | – | – | 0.147 | 1.107 | –
COc1cc2nc(N3CCN(C(=O)c4ccco4)CC3)nc(N)c2cc1OC [prazocin] | – | – | 0.011 | 1.008 | –
CC[N+](C)(CC)CCC[n+]1c(-c2ccccc2)c2cc(N)ccc2c2ccc(N)cc21.[I-].[I-] [propidium iodide] | – | – | 0.100 | 1.072 | –
COc1ccc(C[C@H](N)C(=O)N[C@H]2[C@@H](O)[C@H](n3cnc4c(N(C)C)ncnc43)O[C@@H]2CO)cc1 [puromycin] | – | – | 0.281 | 1.215 | –
O=c1c(O)c(-c2ccc(O)c(O)c2)oc2cc(O)cc(O)c12 [quercetin] | – | – | – | – | Fold (luciferase activity, fold difference relative to DMSO controls) (in vivo): 0.737; Log2 (fold) (luciferase activity, log2 of the fold difference relative to DMSO controls) (in vivo): −0.440
Oc1ccc(C=Cc2cc(O)cc(O)c2)cc1 [resveratrol] | −0.551 | 0.682 | – | – | –
CC[C@H](CO)Nc1nc(NCc2ccccc2)c2ncn(C(C)C)c2n1 [roscovitine] | – | – | – | – | Fold (luciferase activity, fold difference relative to DMSO controls) (in vivo): 0.659; Log2 (fold) (luciferase activity, log2 of the fold difference relative to DMSO controls) (in vivo): −0.602
NCCc1c[nH]c2ccc(O)cc12 [serotonin] | – | – | 0.266 | 1.203 | –
CN/C(=N\c1ccc(C2=NNC(=O)CC2C)cc1)NC#N (stereo not drawn) [siguazodan] | −0.376 | 0.771 | – | – | –
O[C@H]1[C@H]2[C@H](O)CCCN2C[C@H]1O [swainsonine] | −0.233 | 0.851 | – | – | –
CC/C(=C(\c1ccccc1)c1ccc(OCCN(C)C)cc1)c1ccccc1 [tamoxifen, reference compound] | −1.562 | 0.339 | – | – | Fold [4]: 0.339 fold
CC(/C=C/C(=O)NO)=C\[C@@H](C)C(=O)c1ccc(N(C)C)cc1 [trichostatin-A] | – | – | −0.109 | 0.927 | –
CN1CCN(CCCN2c3ccccc3Sc3ccc(C(F)(F)F)cc32)CC1 [trifluoperazine] | – | – | −0.206 | 0.867 | –
CC(C)[C@]12O[C@H]1[C@@H]1O[C@]13[C@]1(O[C@H]1C[C@H]1C4=C(CC[C@@]13C)C(=O)OC4)[C@@H]2O [triptolide, reference compound] | – | – | – | – | Log2 (fold) [4]: −2.553
CC(C)(C)c1cc(C=C(C#N)C#N)cc(C(C)(C)C)c1O [tyrphostin 9] | – | – | 0.671 | 1.592 | –
N#CC(C#N)=Cc1ccc([N+](=O)[O-])c(O)c1 [tyrphostin AG-126] | – | – | −0.085 | 0.943 | –
N#CC(=Cc1ccc2[nH]ccc2c1)C(N)=C(C#N)C#N [tyrphostin AG-370] | – | – | 0.314 | 1.243 | –
COc1cc(/C=C(\C#N)C(N)=O)cc(CSc2nc3ccccc3s2)c1O [tyrphostin AG-825] | – | – | −0.042 | 0.972 | –
CC(C)[C@@H]1NC(=O)[C@H](C)OC(=O)[C@@H](C(C)C)NC(=O)[C@@H](C(C)C)OC(=O)[C@H](C(C)C)NC(=O)[C@H](C)OC(=O)[C@@H](C(C)C)NC(=O)[C@@H](C(C)C)OC(=O)[C@H](C(C)C)NC(=O)[C@H](C)OC(=O)[C@@H](C(C)C)NC(=O)[C@@H](C(C)C)OC1=O [valinomycin] | −0.408 | 0.754 | – | – | –
CCOC(=O)C1=C[C@]2(CC)CCCN3CCc4c(n1c1ccccc41)[C@@H]32 [vinpocetine] | – | – | 0.280 | 1.214 | –

Compound | Log2 (fold) (luciferase activity, log2 of the fold difference relative to DMSO controls) [1] | Fold (luciferase activity, fold difference relative to DMSO controls) [2] | Log2 (fold) of luciferase activity relative to DMSO controls (assessed three days later) | Fold (luciferase activity relative to DMSO controls) [3] [fold] | also measured
COC(=O)[C@@H]1[C@H]2C[C@H]3c4[nH]c5ccccc5c4CCN3C[C@@H]2CC[C@@H]1O [yohimbine] | – | – | 0.061 | 1.043 | –
COC(=O)C[C@H](NC(=O)[C@H](C)NC(=O)[C@@H](NC(=O)OCc1ccccc1)C(C)C)C(=O)CF [zVAD-FMK] (Cbz-Val-Ala-Asp(OMe)-CH2F) | −0.597 | 0.661 | – | – | –
CCCOc1ccccc1-c1nc2nn[nH]c2c(=O)[nH]1 [zaprinast] | – | – | −0.055 | 0.962 | –
COc1cc(-c2ccc(=O)[nH]n2)ccc1OC(F)F [zardaverine] | – | – | 0.145 | 1.106 | –
BW-B 70C | – | – | 0.116 | 1.084 | –
Cyclo [Cyclo [Arg-Gly-Asp-D-Phe-Val]] | −0.221 | 0.858 | – | – | –
HA14-1 | −0.590 | 0.664 | – | – | –
ICRF-193 [reference compound] | −1.459 | 0.364 | – | – | Fold [4]: 0.364 fold
KN-62 | −0.513 | 0.701 | – | – | –
LY-83583 | −0.465 | 0.725 | – | – | –
LY-171883 | – | – | 0.168 | 1.124 | –
LY-294002 | – | – | −0.204 | 0.868 | –
LYSOPHOSPHATIDIC ACID | −0.509 | 0.703 | – | – | –
MDL-28170 | −0.617 | 0.652 | – | – | –
METHOXY VERAPAMIL | – | – | −0.069 | 0.954 | –
PROSTAGLANDIN J2 | −0.525 | 0.695 | – | – | –
Ro 20-1724 | −0.242 | 0.846 | – | – | –
Ro 31-8220 | – | – | 0.158 | 1.116 | –
calphostin C | −0.707 | 0.613 | – | – | –
mastoparan | −0.301 | 0.812 | – | – | –
pifithrin | – | – | 0.022 | 1.015 | –
tunicamycin [reference compound] | −1.925 | 0.263 | – | – | Fold [4]: 0.263 fold
